# In ChEMBL document CHEMBL3351925, “The Oxeatamides: nitrogenous spongian diterpenes from the New Zealand marine sponge Darwinella oxeata” (J Nat Prod, 2014):
# Test: Cytotoxicity against human HL60 cells after 48 hrs by MTT assay
# Format: functional, cell-based
# Conditions: HL-60, 48 h
row,SMILES,IC50
1,CC(C)CN1Cc2c(ccc([C@@]3(C)CCCC(C)(C)C3)c2[C@@H](C)C(=O)O)C1=O,> 10 µM
2,C[C@@H](C(=O)O)c1c([C@@]2(C)CCCC(C)(C)C2)ccc2c1CN(CCc1cnc[nH]1)C2=O,> 10 µM
3,C[C@@H](C(=O)O)c1c([C@@]2(C)CCCC(C)(C)C2)ccc2c1CN(CCN)C2=O,> 10 µM
4,CC(C)CCN1Cc2c(ccc([C@@]3(C)CCCC(C)(C)C3)c2[C@@H](C)C(=O)O)C1=O,> 10 µM
5,CCC(C)CN1Cc2c(ccc([C@@]3(C)CCCC(C)(C)C3)c2[C@@H](C)C(=O)O)C1=O (some centres undefined),> 10 µM
6,C[C@@H](C(=O)O)c1c([C@@]2(C)CCCC(C)(C)C2)ccc2c1CN(CCc1ccccc1)C2=O,> 10 µM
7,C[C@@H](C(=O)O)c1c([C@@]2(C)CCCC(C)(C)C2)ccc2c1CN(CC(=O)O)C2=O,> 10 µM
8,COC(=O)CN1Cc2c(ccc([C@@]3(C)CCCC(C)(C)C3)c2[C@@H](C)C(=O)O)C1=O,> 10 µM
9,C[C@@H](C(=O)O)c1c([C@@]2(C)CCCC(C)(C)C2)ccc2c1C(=O)N(CC(=O)O)C2,> 10 µM
